Reference: US8551723B2, “Tyrosine kinase-inducible domains” (University of Delaware, priority 2010, dated 2013)

Columns and labels:
[1] = Dissociation constant determination of peptide-Tb^3+ complexes by Tb^3+ luminescence titration; type: binding
Method: (§1) All experiments were conducted on a Photon Technology International fluorescence spectrometer model QM-3/2003 with a CW source and a Hamamatsu R928PMT using 10 nm excitation and emission slit widths. A 495 nm highpass filter (model 495FG03-25 AM-53074; Andover Corporation) was used on the emission monochromator. Spectra were acquired at room temperature with a scan rate of 1 nm per second. In dissociation constant determinations, the observed luminescence (photon counts s^−1) was not background-corrected and represents the raw fluorescence data. In the presence of buffer only (no peptide, no metal), the luminescence at 544 nm is similar to the luminescence observed in the presence of peptide at the limit of low concentrations of Tb^3+ (approximately 1.8×10^5 photon counts s^−1). Spectral data (FIGS. 3a, […]) represent the average of at least three independent trials and correspond to the averaged spectra that yielded the data points at the given Tb^3+ concentrations in the dissociation constant determination plots. Spectral data in the manuscript were background-corrected. Peptide solutions were prepared by the dilution of peptide stock solutions into buffer containing 5 mM HEPES (pH 7.8) and 100 mM NaCl (final concentrations). Spectra were acquired in 10 mm quartz fluorescence cells (Starna). Tb^3+ titrations were conducted by dilution of a Tb^3+ solution into a peptide solution. All TbCl3 solutions were standardized by titration with a standard solution of EDTA (1 mM) in the presence of xylenol orange indicator (10 μM) and sodium acetate buffer (pH 6.0, 10 mM). EDTA (1 mM) was added to 500 μL of a 1 mM Tb^3+ solution diluted from a 10 mM stock until the end point was reached; Tb^3+ concentration was determined based on 1:1 binding. Each individual emission spectrum represents an independently prepared solution of peptide and metal. The Tb^3+ emission band at 544 nm was used to evaluate metal binding.
To determine dissociation constants for Tb^3+-peptide complexes, Tb^3+ titrations were conducted in solutions of 5 mM HEPES (pH 7.8) and 100 mM NaCl. Each data point represents an independently prepared solution of peptide and metal. Observed luminescence (photon counts s^−1) at the emission maximum of 544 nm were plotted against Tb^3+ concentration to calculate the final Kd. Data points indicate the average of at least three independent titrations. Error bars indicate standard error. […] The quadratic equation solution to the dissociation constant (equation 1) was employed to generate an accurate solution to the binding equilibrium under conditions when the dissociation constant, peptide concentration, and metal concentration may be similar. For phosphorylated pKID-pTyr11, the dissociation constant was also measured in the presence of 2 mM Mg^2+ and 100 μM Ca^2+ to study the effect of these metals on Tb^3+-peptide complex formation.

[2] = Terbium luminescence spectra of non-phosphorylated versus phosphorylated peptides; conditions: 10 μM peptide, 10 mM HEPES (pH 7.8), 100 mM NaCl, excitation 280 nm
Method: FIGS. 3a, 3e and 3f show the luminescence spectra of 10 μM non-phosphorylated (red) and phosphorylated (blue) (a) pKID-pTyr11, (e) pKID-pTyr15a, and (f) pKID-pTyr15b, in the presence of (a, f) 20 μM Tb^3+ or (e) 80 μM Tb^3+. Experiments were conducted in water with 10 mM HEPES (pH 7.8) and 100 mM NaCl with excitation at 280 nm. […] The fold luminescence differentiation between non-phosphorylated and phosphorylated peptides depends on the relative Tb^3+ affinities of the peptides and on the Tb^3+ concentration. FIGS. 3b, 3c, and 3d show the TOCSY spectra of phosphorylated pKID-pTyr11 in the absence (red) and presence (blue) of La^3+ indicating metal-induced peptide folding: (b) H^N—Hα region; (c) H^N—Hβ region; (d) aromatic region.
as §1, with “Peptide solutions were prepared by the dilution of peptide stock solutions into buffer containing 5 mM HEPES (pH 7.8) and 100 mM NaCl (final concentrations).” left out, “Tb^3+ titrations were conducted by dilution of a Tb^3+ solution into a peptide solution. All TbCl3 solutions were standardized by titration with a standard solution of EDTA (1 mM) in the presence of xylenol orange indicator (10 μM) and sodium acetate buffer (pH 6.0, 10 mM).” left out, “Each individual emission spectrum represents an independently prepared solution of peptide and metal. The Tb^3+ emission band at 544 nm was used to evaluate metal binding.” left out

[3] = 10 μM peptide, footnote a: calculated by defining maximum luminescence as equal to that of the phosphorylated peptide-Tb^3+ complex (no saturation)
[4] = peptide-Tb^3+ complex, 10 μM peptide, 5 mM HEPES (pH 7.8), 100 mM NaCl

## Ac-DKDGDGWISPAAAKYAK-NH2 [non-phosphorylated pKID-pTyr15b]
[1]; [3]
  Kd: 1930 µM

## Ac-DKNADGWIDAApYK-NH2 [phosphorylated pKID-pTyr12]
[1]; [4]
  Kd: 209 ± 32 µM

## Ac-DKDGDGWISPAAAKpYAK-NH2 [phosphorylated pKID-pTyr15b]
[1]; [4]
  Kd: 47 ± 5 µM
[2]; 20 μM Tb^3+
  fold greater luminescence of phosphorylated than non-phosphorylated peptide: 10.1 fold

## DKNADGWIDAAEK [EF Hand-E12, EF Hand consensus peptide with Glu at residue 12, reference compound]
[1]; [4]
  Kd: 88 ± 8 µM

## DKNADGWIDAEAK [EF Control-E11, control peptide with Glu at residue 11, reference compound]
[1]; [4]
  Kd: 1820 ± 140 µM

## Ac-DKNADGWIDAAAAKYAK-NH2 [non-phosphorylated pKID-pTyr15a]
[1]; [3]
  Kd: 3200 µM

## Ac-DKNADGWIDAYAK-NH2 [non-phosphorylated pKID-pTyr11, model tyrosine kinase-inducible domain peptide, Tyr at residue 11]
[1]; [4]
  Kd: 1900 ± 280 µM

## Ac-DKNADGWIDApYAK-NH2 [phosphorylated pKID-pTyr11, pY indicates phosphotyrosine]
[1]; in the presence of 100 μM Ca^2+ and 2 mM Mg^2+
  Tb^3+ binding in the presence of competing metals: identical
[1]; peptide-Tb^3+ complex, 2 μM peptide with 2 mM Mg^2+ and 100 μM Ca^2+
  Kd: 30 µM
[1]; peptide-Tb^3+ complex, 2 μM peptide, 5 mM HEPES (pH 7.8), 100 mM NaCl
  Kd: 32 µM
[1]; [4]
  Kd: 54 ± 9 µM
[1]; phosphorylated versus non-phosphorylated peptide
  fold greater Tb^3+ affinity than the non-phosphorylated peptide: 35 fold
[2]; 20 μM Tb^3+
  fold greater luminescence of phosphorylated than non-phosphorylated peptide: 6.4 fold

## Ac-DKNADGWIDAAAAKpYAK-NH2 [phosphorylated pKID-pTyr15a]
[1]; [4]
  Kd: 217 ± 21 µM
[2]; 80 μM Tb^3+
  fold greater luminescence of phosphorylated than non-phosphorylated peptide: 17.6 fold

## Ac-DKNADGWIDAAYK-NH2 [non-phosphorylated pKID-pTyr12, control peptide with Tyr at residue 12]
[1]; [4]
  Kd: 6470 µM
